Source: patent US9918990B2, “Substituted pyrrolo[2,3-c]pyridines and pyrazolo[3,4-c]pyridines as BET protein inhibitors” (Incyte Corporation, priority 2013, dated 2018)
Where a name gives a salt, the structure may show the parent alone.

Key:
[1] = biological target: BRD4-BD1 (Homo sapiens (Human), UniProt O60885); experiment: BRD4 AlphaScreen assay, BRD4-BD1; type: binding; details: H4Ac4 peptide, 75 min, room temperature, read-out: BRD4 BD-1 enzyme IC50
Protocol: (§1) BRD4-BD1 and BRD4-BD2 assays were conducted in white 384-well polystyrene plate in a final volume of 20 μL for BD1 and 40 μL for BD2. Inhibitors were first serially diluted in DMSO and added to the plate wells before the addition of other reaction components. […] After plate sealing, the plate was incubated in the dark at room temperature for 75 min. before reading on a PHERAstar FS plate reader (BMG Labtech). IC50 determination was performed by fitting the curve of percent control activity versus the log of the inhibitor concentration using the GraphPad Prism 5.0 software.

[2] = system: C-myc; experiment: KMS.12.BM C-myc ELISA assay; type: cell-based; details: Homo sapiens; KMS.12.BM cells, 2 hours, concentration required for 50% C-myc inhibition
Protocol: KMS.12.BM cell line (human myeloma) was purchased from JCRB (Osaka, Japan) and maintained in RPMI with 10% FBS culture medium. To measure the C-myc inhibitory activity of the compounds, the KMS.12.BM cells are plated in the RPMI culture medium at 75000 cells/well/per 200 μL into a 96-well flat bottom polystyrene tissue culture plate (Corning through VWR, NJ), in the presence or absence of a concentration range of test compounds. After 2 hours, cell are pelleted and lysed with Cell Extraction Buffer (BioSource, Carlsbad, Calif.) in the presence of protease inhibitors (Life Technologies, Grand Island, N.Y. and Sigma, St Louis, Mo.). Clarified lyses are tested in a C-myc commercial ELISA (Life Technologies, Grand Island, N.Y.). Compound inhibition is determined relative to cells cultured with no drug and the IC50 is reported as the compound concentration required for 50% C-myc inhibition. IC50 data for the Examples is presented in Table 10 as determined by Assay C1.

[3] = system: KMS.12.BM cells; experiment: KMS.12.BM cell viability assay (Cell Titer-GLO, ATP quantitation); type: cell-based; details: Homo sapiens, 72 h, 3 days, concentration required for 50% cell death, read-out: KMS cellular IC50
Protocol: KMS.12.BM cell line (human myeloma) was purchased from JCRB (Osaka, Japan) and maintained in RPMI with 10% FBS culture medium. To measure the cytotoxic activity of the compounds through ATP quantitation, the KMS.12.BM cells are plated in the RPMI culture medium at 5000 cells/well/per 100 μL into a 96-well polystyrene clear black tissue culture plate (Greiner-bio-one through VWR, NJ), in the presence or absence of a concentration range of test compounds. After 3 days, […] Cell Titer-GLO Luminescent (Promega, Madison, Wis.) cell culture agent is added to each well for 10 minutes at room temperature to stabilize the luminescent signal. This determines the number of viable cells in culture based on quantitation of the ATP present, which signals the presence of metabolically active cells. Luminescence is measured with the Top Count 384 (Packard Bioscience through Perkin Elmer, Boston, Mass.). Compound inhibition is determined relative to cells cultured with no drug and the IC50 is reported as the compound concentration required for 50% cell death. IC50 data for the Examples is presented in Table 9 as determined by Assay B1.

[4] = biological target: BRD4-BD2 (Homo sapiens (Human), UniProt O60885); experiment: BRD4 AlphaScreen assay, BRD4-BD2; type: binding; details: H4Ac4 peptide, 75 min, room temperature, read-out: BRD4 BD-2 enzyme IC50
Protocol: as §1

SMILES | IC50 [1] | IC50 [2] | IC50 [4] | IC50 [3]
Cn1cc(-c2ccc3[nH]c(=O)[nH]c3c2Oc2ccc(F)cc2F)c2cc[nH]c2c1=O [Example 1, 4-(2,4-Difluorophenoxy)-5-(6-methyl-7-oxo-6,7-dihydro-1H-pyrrolo[2,3-c]pyridin-4-yl)-1,3-dihydro-2H-benzimidazol-2-one] | < 100 nM | ≤ 1000 nM | < 100 nM | ≤ 1000 nM
Cc1nc2c(Oc3ccc(F)cc3F)c(-c3cn(C)c(=O)c4[nH]ccc34)ccc2[nH]1 [Example 3, 4-[4-(2,4-Difluorophenoxy)-2-methyl-1H-benzimidazol-5-yl]-6-methyl-1,6-dihydro-7H-pyrrolo[2,3-c]pyridin-7-one trifluoroacetate] | < 100 nM | ≤ 1000 nM | < 100 nM | ≤ 1000 nM
Cn1cc(-c2ccc3c(ncn3C)c2Oc2ccc(F)cc2F)c2cc[nH]c2c1=O [Example 4, 4-[4-(2,4-Difluorophenoxy)-1-methyl-1H-benzimidazol-5-yl]-6-methyl-1,6-dihydro-7H-pyrrolo[2,3-c]pyridin-7-one trifluoroacetate] | < 100 nM | ≤ 1000 nM | < 100 nM | ≤ 1000 nM
Cn1cc(-c2ccc3c([nH]c(=O)n3C)c2Oc2ccc(F)cc2F)c2cc[nH]c2c1=O [Example 6, 4-(2,4-Difluorophenoxy)-1-methyl-5-(6-methyl-7-oxo-6,7-dihydro-1H-pyrrolo[2,3-c]pyridin-4-yl)-1,3-dihydro-2H-benzimidazol-2-one] | < 100 nM | ≤ 1000 nM | < 100 nM | ≤ 1000 nM
Cn1cc(-c2ccc3[nH]nnc3c2Oc2ccc(F)cc2F)c2cc[nH]c2c1=O [Example 8, 4-[4-(2,4-Difluorophenoxy)-1H-1,2,3-benzotriazol-5-yl]-6-methyl-1,6-dihydro-7H-pyrrolo[2,3-c]pyridin-7-one] | < 100 nM | ≤ 1000 nM | < 100 nM | ≤ 1000 nM
Cn1cc(-c2ccc3c(nnn3C)c2Oc2ccc(F)cc2F)c2cc[nH]c2c1=O [Example 9, 4-[4-(2,4-Difluorophenoxy)-1-methyl-1H-1,2,3-benzotriazol-5-yl]-6-methyl-1,6-dihydro-7H-pyrrolo[2,3-c]pyridin-7-one] | < 100 nM | ≤ 1000 nM | < 100 nM | ≤ 1000 nM
Cn1cc(-c2ccc3[nH]nnc3c2Oc2ccc(F)cc2F)c2cn[nH]c2c1=O [Example 10, 4-[4-(2,4-Difluorophenoxy)-1H-1,2,3-benzotriazol-5-yl]-6-methyl-1,6-dihydro-7H-pyrazolo[3,4-c]pyridin-7-one] | < 100 nM | ≤ 1000 nM | < 100 nM | ≤ 1000 nM
Cn1cc(-c2ccc3[nH]cnc3c2OCC2CC2)c2cc[nH]c2c1=O [Example 12, 4-[4-(Cyclopropylmethoxy)-1H-benzimidazol-5-yl]-6-methyl-1,6-dihydro-7H-pyrrolo[2,3-c]pyridin-7-one] | < 100 nM | ≤ 1000 nM | < 100 nM | ≤ 1000 nM
Cn1cc(-c2ccc3[nH]cnc3c2Oc2ccc(F)cc2F)c2cn[nH]c2c1=O [Example 14, 4-[4-(2,4-Difluorophenoxy)-1H-benzimidazol-5-yl]-6-methyl-1,6-dihydro-7H-pyrazolo[3,4-c]pyridin-7-one] | < 100 nM | ≤ 1000 nM | < 100 nM | ≤ 1000 nM
Cn1cc(-c2ccc3c(c2Oc2ccccc2)NC(=O)C(C)(C)O3)c2cc[nH]c2c1=O [Example 95, 2,2-Dimethyl-6-(6-methyl-7-oxo-6,7-dihydro-1H-pyrrolo[2,3-c]pyridin-4-yl)-5-phenoxy-2H-1,4-benzoxazin-3(4H)-one] | < 100 nM | – | < 100 nM | ≤ 1000 nM
CN1C(=O)COc2ccc(-c3cn(C)c(=O)c4[nH]ccc34)c(Oc3ccccc3)c21 [Example 100, 4-Methyl-6-(6-methyl-7-oxo-6,7-dihydro-1H-pyrrolo[2,3-c]pyridin-4-yl)-5-phenoxy-2H-1,4-benzoxazin-3(4H)-one] | 100 to 1000 nM | – | < 100 nM | ≤ 1000 nM
Cn1cc(-c2ccc3c(nc(CNC(=O)C4CCC4)n3C)c2Oc2ccccc2)c2cc[nH]c2c1=O [Example 111, N-{[1-Methyl-5-(6-methyl-7-oxo-6,7-dihydro-1H-pyrrolo[2,3-c]pyridin-4-yl)-4-phenoxy-1H-benzimidazol-2-yl]methyl}cyclobutanecarboxamide] | < 100 nM | – | < 100 nM | ≤ 1000 nM
Cn1cc(-c2ccc3c(nc(CNC(=O)C4CC4)n3C)c2Oc2ccccc2)c2cc[nH]c2c1=O [Example 112, N-{[1-Methyl-5-(6-methyl-7-oxo-6,7-dihydro-1H-pyrrolo[2,3-c]pyridin-4-yl)-4-phenoxy-1H-benzimidazol-2-yl]methyl}cyclopropanecarboxamide] | < 100 nM | – | < 100 nM | ≤ 1000 nM

Now from value to molecule, other results behind:

IC50 [1] | IC50 [2] | IC50 [4] | SMILES | IC50 [3]
< 100 nM | ≤ 1000 nM | < 100 nM | Cn1cc(-c2ccc3[nH]cnc3c2Oc2ccc(F)cc2F)c2cc[nH]c2c1=O [Example 2, 4-[4-(2,4-Difluorophenoxy)-1H-benzimidazol-5-yl]-6-methyl-1,6-dihydro-7H-pyrrolo[2,3-c]pyridin-7-one trifluoroacetate] | ≤ 1000 nM
< 100 nM | ≤ 1000 nM | < 100 nM | Cc1nc2c(Oc3ccc(F)cc3F)c(-c3cn(C)c(=O)c4[nH]ccc34)ccc2n1C [Example 5, 4-[4-(2,4-Difluorophenoxy)-1,2-dimethyl-1H-benzimidazol-5-yl]-6-methyl-1,6-dihydro-7H-pyrrolo[2,3-c]pyridin-7-one trifluoroacetate] | ≤ 1000 nM
< 100 nM | 1000 to 10000 nM | < 100 nM | Cn1cc(-c2ccc3c(c2Oc2ccc(F)cc2F)n(C)c(=O)n3C)c2cc[nH]c2c1=O [Example 7, 4-(2,4-Difluorophenoxy)-1,3-dimethyl-5-(6-methyl-7-oxo-6,7-dihydro-1H-pyrrolo[2,3-c]pyridin-4-yl)-1,3-dihydro-2H-benzimidazol-2-one] | ≤ 1000 nM
< 100 nM | ≤ 1000 nM | < 100 nM | Cn1cc(-c2ccc3[nH]c(=O)[nH]c3c2OCC2CC2)c2cc[nH]c2c1=O [Example 11, 4-(Cyclopropylmethoxy)-5-(6-methyl-7-oxo-6,7-dihydro-1H-pyrrolo[2,3-c]pyridin-4-yl)-1,3-dihydro-2H-benzimidazol-2-one] | ≤ 1000 nM
< 100 nM | ≤ 1000 nM | < 100 nM | Cc1nc2c(OCC3CC3)c(-c3cn(C)c(=O)c4[nH]ccc34)ccc2[nH]1 [Example 13, 4-[4-(Cyclopropylmethoxy)-2-methyl-1H-benzimidazol-5-yl]-6-methyl-1,6-dihydro-7H-pyrrolo[2,3-c]pyridin-7-one] | ≤ 1000 nM
< 100 nM | ≤ 1000 nM | < 100 nM | Cc1nc2c(Oc3ccc(F)cc3F)c(-c3cn(C)c(=O)c4[nH]ncc34)ccc2[nH]1 [Example 15, 4-[4-(2,4-Difluorophenoxy)-2-methyl-1H-benzimidazol-5-yl]-6-methyl-1,6-dihydro-7H-pyrazolo[3,4-c]pyridin-7-one] | ≤ 1000 nM
< 100 nM | – | < 100 nM | Cn1cc(-c2ccc3c([nH]c(=O)n3C)c2Sc2ccccc2)c2cc[nH]c2c1=O [Example 97, 1-Methyl-5-(6-methyl-7-oxo-6,7-dihydro-1H-pyrrolo[2,3-c]pyridin-4-yl)-4-(phenylthio)-1,3-dihydro-2H-benzimidazol-2-one] | ≤ 1000 nM
< 100 nM | – | < 100 nM | CCSc1c(-c2cn(C)c(=O)c3[nH]ccc23)ccc2c1[nH]c(=O)n2C [Example 98, 4-(Ethylthio)-1-methyl-5-(6-methyl-7-oxo-6,7-dihydro-1H-pyrrolo[2,3-c]pyridin-4-yl)-1,3-dihydro-2H-benzimidazol-2-one] | ≤ 1000 nM
